Experimental data published in US20250333530A1 (Hoffmann-La Roche Inc., priority 2024, published 2025).
Entries after “also recorded” stand apart in the source; their conditions may differ.

Key:
serum cytokines [1] = details: day 10
Experimental: Cytokine measurement was carried out with the Luminex™ FLEXMAP 3D™ system using Bio-Plex Pro Human Cytokine Assay according to the manufacturer's instruction.

serum cytokines [2] = experiment: Dexamethasone scheduling with glofitamab: serum cytokines by multiplex assay; format: in vivo, humanized BRGS-CD47 mice; details: for Serum cytokine levels 4 hours after the first glofitamab injection: glofitamab 0.15 mg/kg i.v., dexamethasone co-administered in Groups C-G (2-6 mg/kg orally)
Experimental: Group B animals (n=14) were injected intravenously with glofitamab only (0.15 mg/kg at first and 0.5 mg/kg at subsequent injections in 200 μL of histidine buffer) once weekly for 5 weeks.
Serum was prepared by centrifugation.
Serum was collected and stored at −20° C. Serum samples were diluted 1:10 and used for the analysis of different cytokines/chemokines using the Bio-Plex Pro™ Human Chemokine Panel, 40-Plex system (Catalog No. 171AK99MR2; Bio-Rad; Hercules, CA), following the manufacturer's instructions.

OCI-Ly18 tumor = experiment: Dexamethasone scheduling with glofitamab, gemcitabine and oxaliplatin: tumor growth; format: in vivo, humanized BRGS-CD47 mice
Experimental: Human OCI-Ly18 (Diffuse Large B-Cell Lymphoma; DLBCL) cells were originally obtained from ATCC and subsequently expanded and deposited in the Roche Glycart internal cell bank. Cells were cultured in RPMI medium containing 10% fetal calf serum (FCS) and 1× GLUTAMAX®. The cells were maintained at 37° C. in a water-saturated atmosphere with 5% CO2. A 50 μL cell suspension (5×10^6 OCI-Ly18 cells) mixed with 50 μL Matrigel was injected subcutaneously into the flank of anesthetized mice using a 22G to 30G needle. […] Health monitoring was performed regularly. At the appropriate time, mice were injected subcutaneously with tumor cells as described and treated with the compounds or histidine buffer (Vehicle; Group A) when tumor size reached approximately 200 mm^3 (Day 7). […] Gemcitabine and oxaliplatin were injected intraperitoneally (i.p.), glofitamab intravenously (i.v.), and dexamethasone was administered via oral gavage. Groups A-D received no dexamethasone: • Group A: vehicle (control group). • Group B: glofitamab monotherapy • Group C: gemcitabine and oxaliplatin. • Group D: glofitamab, gemcitabine and oxaliplatin. […] [table] All mice were injected with the appropriate solutions. […] Subsequent combination treatments were carried out concomitantly. To obtain the proper amount of compounds per injection volume, the stock solutions (Table 20) were diluted with histidine buffer when necessary. Tumor growth was measured three times weekly using a caliper and tumor volume was calculated as followed: The study was terminated at day 60 after a total of 7 cycles of treatment.

[3] = in vivo

Molecule	Serum IFN-γ and IL-2 (serum cytokines [1]; Groups F and H)	Serum MCP-1 and IL-8 (serum cytokines [1]; Groups F and H)	CRS-related serum cytokines, such as IL-6, vs glofitamab monotherapy group (serum cytokines [1]; additional dexamethasone injection 24 hours post glofitamab (Groups F and H))	Serum cytokine levels 28 hours after the first glofitamab injection vs glofitamab only (serum cytokines [2]; 1 or 2 dexamethasone doses prior to glofitamab only (Groups C and E))	IL-6 and IL-10 levels with additional dexamethasone premedication dose (serum cytokines [2]; 24-hour pre-glofitamab administration)	IL-6 with dexamethasone post treatment dose (serum cytokines [2]; 24 hours post-glofitamab administration, 28 hours post-glofitamab time point)	Levels of some cytokines (e.g., GM-CSF), second dexamethasone dose prior to glofitamab vs only 1 dose (serum cytokines [2]; Groups D-G, 4 hours after first glofitamab injection)	Serum cytokine levels 28 hours after the first glofitamab injection (serum cytokines [2]; dexamethasone prior to and after glofitamab injection (Groups D and F), mainly IL-6, MIP1β, MIP1α, TNFα reduced)	Serum cytokine levels 4 hours after the first glofitamab injection (serum cytokines [2])	Anti-tumor effect of glofitamab + gemcitabine + oxaliplatin with added dexamethasone (OCI-Ly18 tumor; dexamethasone 4 mg/kg p.o., Groups E-H, correlated with frequency of dexamethasone administration)	Anti-tumor effect vs CD20-TCB and chemotherapy without dexamethasone (OCI-Ly18 tumor; dexamethasone 4 mg/kg p.o., Groups G and H (most frequent injections), study termination)	Serum cytokine levels after the second glofitamab injection (serum cytokines [2]; 0.5 mg/kg, much lower than after the first cycle)	Serum cytokine levels 28 hours after the first glofitamab injection (serum cytokines [2]; glofitamab monotherapy (Group B))	Pharmacokinetics on co-administration with gemcitabine or oxaliplatin [3]	Tumor growth (tumor volume) up to day 60 (OCI-Ly18 tumor; 7 weekly cycles, glofitamab 0.15/0.5 mg/kg i.v., gemcitabine/oxaliplatin 50/3 mg/kg i.p., no dexamethasone (Groups B-D))
C[C@@H]1C[C@H]2[C@@H]3CCC4=CC(=O)C=C[C@]4(C)[C@@]3(F)[C@@H](O)C[C@]2(C)[C@@]1(O)C(=O)COP(=O)(O)O [dexamethasone, Dexamethasone sodium phosphate]	did not show as strong a reduction	statistically reduced	significant reduction	No difference in cytokine levels	reduced IL-6, and to some extent IL-10 levels, at the early time point, with no mitigation capacity at the later time point	mitigated IL-6 at the later time point	further reduced the levels of some cytokines	effectively mitigated cytokine levels for an extended duration; also recorded: very low cytokine levels	significantly reduced cytokine levels	improvement in anti-tumor effects	statistically significant better anti-tumor effects				
glofitamab: anti-CD20/anti-CD3 bispecific antibody, 2:1 configuration; CAS 2229047-91-8									strong cytokine release			did not show an increase in cytokine levels	higher cytokine levels	not affected	initially elicited a robust inhibition of tumor growth, which was subsequently followed by tumor recurrence in all treated mice
